target: Aldose reductase (Oryctolagus cuniculus); test: Tested in vitro for inhibitory activity against partially purified aldose reductase from male rabbit lens

IC50 [nM]	SMILES
4000	NN1C(=O)Nc2ccccc2C12NC(=O)NC2=O (configuration not stated)
73	CN1C(=O)Nc2ccc([N+](=O)[O-])cc2C12NC(=O)NC2=O (configuration not stated)
360	COc1ccc2c(c1)NC(=O)N(C)C21NC(=O)NC1=O (configuration not stated)
400	Cc1cccc2c1C1(NC(=O)NC1=O)N(C)C(=O)N2 (configuration not stated)
140	CN1C(=O)Nc2c(cc(F)c(F)c2F)C12NC(=O)NC2=O (configuration not stated)
> 10000	CN1C(=O)Nc2ccccc2C12NC(=S)NC2=O (configuration not stated)
30	Cc1cc2c(cc1Cl)C1(NC(=O)NC1=O)N(C)C(=O)N2 (configuration not stated)
> 10000	O=C1NC(=O)C2(N1)c1ccccc1NC(=O)N2O (configuration not stated)
430	CN1C(=O)Nc2cc(N3CCOCC3)c([N+](=O)[O-])cc2C12NC(=O)NC2=O (configuration not stated)
> 10000	O=C1NC(=O)C2(N1)c1ccccc1NC(=O)N2Cc1ccccc1 (configuration not stated)
22	CN1C(=O)Nc2ccc(Cl)cc2[C@@]12NC(=O)NC2=O
74	CN1C(=O)Nc2cc(Cl)c(Cl)cc2C12NC(=O)NC2=O (configuration not stated)
> 10000	CN1C(=O)Nc2ccc(N)cc2C12NC(=O)NC2=O (configuration not stated)
> 10000	CCCCN1C(=O)Nc2ccccc2C12NC(=O)NC2=O (configuration not stated)
> 10000	CN1C(=O)NC(=O)C12c1ccccc1NC(=O)N2C (configuration not stated)
> 10000	CC(C)N1C(=O)Nc2ccccc2C12NC(=O)NC2=O (configuration not stated)

IC50 [nM]	SMILES
> 10000	CN1C(=O)Nc2ccc(O)cc2C12NC(=O)NC2=O (configuration not stated)
> 10000	CN1C(=O)Nc2ccccc2C12SC(N)=NC2=O (configuration not stated)
94	CN1C(=O)Nc2cc(Cl)ccc2C12NC(=O)NC2=O (configuration not stated)
220	Cc1ccc2c(c1)NC(=O)N(C)C21NC(=O)NC1=O (configuration not stated)
56	CN1C(=O)Nc2ccc(Cl)cc2C12NC(=O)NC2=O (configuration not stated)
1000	CCN1C(=O)Nc2ccccc2C12NC(=O)NC2=O (configuration not stated)
770	CN1C(=O)Nc2ccc(Cl)cc2[C@]12NC(=O)NC2=O
1400	O=C1NC(=O)C2(N1)NC(=O)Nc1ccccc12 (configuration not stated)
> 10000	CN1C(=O)NC2(C1=O)c1ccccc1NC(=O)N2C (configuration not stated)
860	CN1C(=O)Nc2cccc(Cl)c2C12NC(=O)NC2=O (configuration not stated)
> 10000	CN1C(=O)N(C)C2(C1=O)c1ccccc1NC(=O)N2C (configuration not stated)
52	CN1C(=O)Nc2ccc(Br)cc2C12NC(=O)NC2=O (configuration not stated)
46	CN1C(=O)Nc2c([N+](=O)[O-])cc(Cl)cc2C12NC(=O)NC2=O (configuration not stated)
2000	CN1C(=O)Nc2ccc(OC(=O)c3ccccc3)cc2C12NC(=O)NC2=O (configuration not stated)
1800	CN1C(=O)Nc2cc3c(cc2C12NC(=O)NC2=O)OCO3 (configuration not stated)

SMILES	IC50 [nM]
CN1C(=O)Nc2cc(Cl)c([N+](=O)[O-])cc2C12NC(=O)NC2=O (configuration not stated)	120

Source: BindingDB's records for doi:10.1021/jm00089a021 (Tanabe Seiyaku, 1992)
